Source: BigSolDB 2.1

Nc1nc2ccc(OC(F)(F)F)cc2s1
solubility (mole fraction)
Settings	278.15 K	283.15 K	288.15 K	293.15 K	298.15 K	303.15 K	308.15 K	313.15 K	318.15 K	323.15 K
in acetone	0.371	0.379	0.387	0.4	0.414	0.425	0.437	0.449	0.464	0.477
in ethanol	0.179	0.188	0.198	0.212	0.223	0.236	0.255	0.273	0.294	0.308
in n-propanol	0.179	0.189	0.202	0.215	0.23	0.249	0.267	0.287	0.312	0.333
